In patent US11884627B2, “Compounds and compositions for treating conditions associated with LPA receptor activity” (Lhotse Bio, Inc., priority 2022, dated 2024):
Where two headings read alike, the source gives them in different places.

Target: T1, human LPA1 (Homo sapiens, UniProt Q92633)
T1 construct: expressed in transfected cells; host or cells: CHO-K1
Assay: In vitro LPA1 calcium flux antagonist assay - Bioduro protocol
Format: cell-based
Details: CHO-K1 cells overexpressing human LPA1 and G15a, LPA challenge at EC80
Method in brief: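 CHO-K1 cells overexpressing human LPA1 and G15a, serum-starved 4 h, loaded with Fluo-8 AM plus 2.5 mM probenecid in HBSS/20 mM Hepes for 30 min at 37 °C. Compound preincubated 30 min, then LPA challenge at EC80; FLIPR calcium signal, % inhibition relative to DMSO and LPA controls.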

[1] = calcium mobilization on FLIPR Tetra, read-out: IC50
[2] = Table B3, read-out: Activity (IC50 class)

T1 sequence (Q92633 whole entry): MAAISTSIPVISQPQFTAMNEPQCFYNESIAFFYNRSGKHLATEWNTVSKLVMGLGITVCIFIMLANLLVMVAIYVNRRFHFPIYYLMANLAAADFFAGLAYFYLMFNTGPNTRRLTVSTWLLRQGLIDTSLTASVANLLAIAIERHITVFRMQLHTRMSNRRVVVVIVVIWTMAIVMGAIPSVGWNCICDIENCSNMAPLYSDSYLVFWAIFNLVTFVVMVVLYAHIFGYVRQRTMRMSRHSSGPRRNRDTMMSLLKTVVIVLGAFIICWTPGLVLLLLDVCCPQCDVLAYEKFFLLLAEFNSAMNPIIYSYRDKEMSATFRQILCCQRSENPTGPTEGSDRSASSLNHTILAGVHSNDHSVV

SMILES | IC50 [1] | IC50 [2]
COc1cc(-c2ccc(NC3(C(=O)O)CCC(F)(F)CC3)cc2COC2CCCC2)cc(OC)c1C [Compound 349] | 14.2 nM | < 100 nM
CCOc1cccc(-c2ccc(OC3(C(=O)O)CCOCC3)cc2COC2CC2)c1Cl [Compound 374] | 14.6 nM | < 100 nM
O=C(O)C1(Nc2ccc(-c3cccc(CCO)c3F)c(COC3CC3)c2)CCOCC1 [Compound 305] | 711 nM | > 1000 nM
CCOc1cncc(-c2ccc(NC3(C(=O)O)CCCC3)cc2COC2CC2)c1C [Compound 417] | 35.8 nM | < 100 nM
COc1cc(-c2ccc(OC3(C(=O)O)CCOCC3)cc2COC2CC2)c(F)c(OC)c1C [Compound 343] | 1130 nM | > 1000 nM
COc1cc(OC)c(Cl)c(-c2ccc(NC3(C(=O)O)CCOCC3)cc2COCC(C)C)c1 [Compound 398] | 104 nM | 100 to 1000 nM
CCOc1cc(OC)cc(-c2ccc(NC3(C(=O)O)CCOCC3)cc2COC2CC2)c1F [Compound 288] | 11.9 nM | < 100 nM
CCCOCc1cc(NC2(C(=O)O)CCOCC2)ccc1-c1cc(OC)c(C)c(OC)c1F [Compound 334] | 45.2 nM | < 100 nM
COc1cc(-c2ccc(NC3(C(=O)O)CCOCC3)cc2COC2CCCC2)cc(OC)n1 [Compound 152, 4-((3-((cyclopentyloxy)methyl)-4-(2,6-dimethoxypyridin-4-yl)phenyl)amino)tetrahydro-2H-pyran-4-carboxylic acid] | 390 nM | 100 to 1000 nM
COc1cc(-c2ccc(NC3(C(=O)O)CCOCC3)cc2COC2CC2)c(C(F)F)c(OC)n1 [Compound 314] | 37 nM | < 100 nM
O=C(O)C1(Nc2ccc(-c3cccc(OC4CC4)c3C(F)F)c(COC3CC3)c2)CC1 [Compound 325] | 59.6 nM | < 100 nM
COc1cc(-c2ccc(NC3(C(=O)O)CCOCC3)cc2COC2CCCC2)c(Cl)c(OC)n1 [Compound 207, 4-((4-(3-chloro-2,6-dimethoxypyridin-4-yl)-3-((cyclopentyloxy)methyl)phenyl)amino)tetrahydro-2H-pyran-4-carboxylic acid] | 30.4 nM | < 100 nM
COc1cc(-c2ccc(NC3(C(=O)O)CCCOC3)cc2COC2CCCC2)c(C)c(OC)c1C (single isomer, unassigned) [Compound 201] | 73.2 nM | < 100 nM
COc1cc(OC)c(Cl)c(-c2ccc(NC3(C(=O)O)CCOCC3)cc2COC2CC2)c1 [Compound 303] | 12.3 nM | < 100 nM
CCOc1cccc(-c2ccc(NC3(C(=O)O)CC3)cc2COC2CC2)c1C [Compound 360] | 75.5 nM | < 100 nM
COc1cc2c(c(-c3ccc(NC4(C(=O)O)CCOCC4)cc3COC3CCCC3)c1)OCO2 [Compound 199] | 3210 nM | > 1000 nM
CCOc1cccc(-c2ccc(NC3(C(=O)O)CCOCC3)cc2CCC2CC2)c1F [Compound 373] | 1.2 nM | < 100 nM
COc1cc(-c2ccc(NC3(C(=O)O)CCOCC3)cc2COC2COc3ccccc32)c(F)c(OC)c1C (single isomer, unassigned) [Compound 223] | 4.76 nM | < 100 nM
COc1cc(-c2ccc(NC3(C(=O)O)CCOCC3)cc2COC2CCCC2)c(C)c(OC)c1C [Compound 148, 4-((2-((cyclopentyloxy)methyl)-3′,5′-dimethoxy-2′,4′-dimethyl-[1,1′-biphenyl]-4-yl)amino)tetrahydro-2H-pyran-4-carboxylic acid] | 10.5 nM | < 100 nM
CCOc1c(C)c(OC)cc(-c2ccc(NC3(C(=O)O)CCOCC3)cc2COC2CC2)c1F [Compound 312] | 5.44 nM | < 100 nM
COc1cc(-c2ccc(NC3(C(=O)O)CCOCC3)cc2COC2CCCCC2)c(F)c(OC)c1C [Compound 276] | 25.4 nM | < 100 nM
COc1cc(-c2ccc(C3(C(=O)O)CCOCC3)cc2COC2CCCC2)c(Cl)c(OC)c1C [Compound 235] | 198 nM | 100 to 1000 nM
